Experimental data: the supplement of paper PMC10307832

Columns and labels:
Test in all cases: relative viability (nuclei count vs DMSO), 5 days (fraction); higher = more cells survive
[1] = compound: CN(C)CC1=CC(=CC=C1)N=C(C2=CC=CC=C2)C3=C(NC4=C3C=CC(=C4)C(=O)N(C)C)O + CC1(C)CCC(c2ccc(Cl)cc2)=C(CN2CCN(c3ccc(C(=O)NS(=O)(=O)c4ccc(N[C@H](CCN5CCOCC5)CSc5ccccc5)c(S(=O)(=O)C(F)(F)F)c4)cc3)CC2)C1 [Navitoclax] (partner 0.5 µM)
Procedure, shortened: (§1)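 Each reported value is a median over duplicate plates. It expresses relative viability: treated-well nuclei count divided by vehicle-well nuclei count. Lung cancer cell lines in 1536-well plates were dosed by pin tool a day after seeding, alone with one drug or with a fixed anchor-drug dose plus five library-drug doses (not always all listed) in √10 steps, and nuclei were counted after 5 days.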

[2] = compound: CN(C)CC1=CC(=CC=C1)N=C(C2=CC=CC=C2)C3=C(NC4=C3C=CC(=C4)C(=O)N(C)C)O + C[C@@H](Oc1cc(-c2cnn(C3CCNCC3)c2)cnc1N)c1c(Cl)ccc(F)c1Cl [Crizotinib] (partner 1 µM)
Procedure, shortened: as §1

[3] = compound: CN(C)CC1=CC(=CC=C1)N=C(C2=CC=CC=C2)C3=C(NC4=C3C=CC(=C4)C(=O)N(C)C)O + N=C(N)NC(=N)NCCc1ccccc1 [Phenformin] (partner 250 µM)
Procedure, shortened: as §1

[4] = compound: CN(C)CC1=CC(=CC=C1)N=C(C2=CC=CC=C2)C3=C(NC4=C3C=CC(=C4)C(=O)N(C)C)O + Nc1ncn([C@H]2C[C@H](O)[C@@H](CO)O2)c(=O)n1 [Decitabine] (partner 2 µM)
Procedure, shortened: as §1

Cell Line	relative viability ([1]; first compound 0.08 µM)	relative viability ([1]; first compound 0.253 µM)	relative viability ([1]; first compound 0.8 µM)	relative viability ([1]; first compound 2.53 µM)	relative viability ([1]; first compound 8 µM)	relative viability ([2]; first compound 0.08 µM)	relative viability ([2]; first compound 0.253 µM)	relative viability ([2]; first compound 0.8 µM)	relative viability ([2]; first compound 2.53 µM)	relative viability ([2]; first compound 8 µM)	relative viability ([3]; first compound 0.08 µM)	relative viability ([3]; first compound 0.253 µM)	relative viability ([3]; first compound 0.8 µM)	relative viability ([3]; first compound 2.53 µM)	relative viability ([3]; first compound 8 µM)	relative viability ([4]; first compound 0.08 µM)	relative viability ([4]; first compound 0.253 µM)	relative viability ([4]; first compound 0.8 µM)	relative viability ([4]; first compound 2.53 µM)	relative viability ([4]; first compound 8 µM)
LU99A	0.827	0.581	0.879	0.781	0.882	0.565	0.551	0.61	0.513	0.411	0.737	0.874	0.862	0.655	0.757	0.925	0.79	0.885	0.927	0.673
LXF-289	0.959	0.911	0.946	0.945	0.809	0.871	0.762	0.758	0.773	0.757	0.499	0.489	0.518	0.518	0.473	0.343	0.368	0.366	0.384	0.374
NCI-H23	0.9	0.911	0.884	0.99	0.732	0.376	0.538	0.503	0.483	0.417	0.796	0.781	0.787	0.764	0.691	–	0.332	0.303	0.343	0.346
NCI-H322M	1.18	1.13	1.07	1.06	1.15	0.931	0.899	0.928	0.887	0.853	0.685	0.801	0.669	0.631	0.551	0.598	0.719	0.644	0.652	0.567
NCI-H441	0.632	0.391	0.619	0.647	0.565	0.463	0.748	1.04	0.627	0.629	0.828	0.816	0.784	0.878	0.886	0.248	0.282	0.282	0.237	0.221
NCI-H460	1.05	1.13	1.07	1.05	1.05	0.824	0.811	0.998	0.819	0.733	0.592	0.491	0.558	0.43	0.449	0.449	0.491	0.503	0.456	0.471
NCI-H520	1.04	1.23	1.07	1.05	0.953	0.713	0.722	0.833	0.705	0.71	0.477	0.564	0.508	0.429	0.347	0.489	0.528	0.481	0.5	0.511
NCI-H596	0.967	0.93	0.911	0.977	0.83	1	0.952	1.04	0.968	0.785	0.693	0.625	0.769	0.806	0.742	0.919	1.05	0.967	1.03	0.979
NCI-H647	1.15	0.962	1.34	0.916	0.976	1.01	0.987	1.08	0.727	0.671	0.521	0.539	0.463	0.555	0.318	0.414	0.477	0.423	0.438	0.488
NCI-H727	0.574	0.428	0.371	0.471	0.498	0.772	0.808	0.78	0.795	0.699	0.595	0.474	0.53	0.578	0.573	–	0.817	0.841	1.09	0.864
NCI-H838	1.22	1.16	1.2	1.07	0.985	0.825	0.784	0.861	0.659	0.755	0.57	0.584	0.585	0.537	0.503	0.485	0.507	0.427	0.458	0.413
NCI-H1355	1.01	0.87	0.836	0.93	0.866	1.1	1.05	1.06	1.03	1.06	0.483	0.463	0.421	0.421	0.392	0.376	0.359	0.331	0.342	0.365
NCI-H1437	1.2	1.08	1.09	1.06	1.12	0.898	0.949	0.992	0.813	0.959	0.269	0.298	0.335	0.349	0.36	0.559	0.609	0.576	0.577	0.685
NCI-H1650	1.23	1.16	1.3	1.15	1.08	1.14	0.956	1.03	0.977	0.749	0.481	0.55	0.412	0.49	0.4	0.471	0.376	0.361	0.485	0.452
NCI-H1651	1.11	1.11	1.13	1.11	0.934	0.884	0.844	0.873	0.835	0.822	0.346	0.343	0.349	0.292	0.329	0.665	0.622	0.616	0.423	0.643
NCI-H1666	0.983	1.14	1.02	1.07	1.1	1.24	1.04	0.933	1.14	1.13	0.569	0.579	0.615	0.58	0.585	0.694	0.715	0.68	0.769	0.744

Cell Line	relative viability ([1]; first compound 0.08 µM)	relative viability ([1]; first compound 0.253 µM)	relative viability ([1]; first compound 0.8 µM)	relative viability ([1]; first compound 2.53 µM)	relative viability ([1]; first compound 8 µM)	relative viability ([2]; first compound 0.08 µM)	relative viability ([2]; first compound 0.253 µM)	relative viability ([2]; first compound 0.8 µM)	relative viability ([2]; first compound 2.53 µM)	relative viability ([2]; first compound 8 µM)	relative viability ([3]; first compound 0.08 µM)	relative viability ([3]; first compound 0.253 µM)	relative viability ([3]; first compound 0.8 µM)	relative viability ([3]; first compound 2.53 µM)	relative viability ([3]; first compound 8 µM)	relative viability ([4]; first compound 0.08 µM)	relative viability ([4]; first compound 0.253 µM)	relative viability ([4]; first compound 0.8 µM)	relative viability ([4]; first compound 2.53 µM)	relative viability ([4]; first compound 8 µM)
NCI-H1734	0.821	0.836	0.889	0.844	0.644	0.7	0.651	0.597	0.667	0.557	0.354	0.408	0.385	0.376	0.368	0.526	0.491	0.455	0.564	0.493
NCI-H1755	1.02	1.01	0.998	0.972	0.961	0.792	0.897	0.789	0.758	0.825	0.577	0.58	0.601	0.549	0.566	0.674	0.706	0.63	0.689	0.719
NCI-H1792	0.606	0.594	0.573	0.61	0.662	0.68	0.97	0.954	0.786	0.915	0.255	0.211	0.357	0.179	0.231	0.506	0.594	0.585	0.484	0.602
NCI-H1915	0.819	0.75	0.782	0.791	0.805	0.886	0.885	0.989	0.832	0.848	0.368	0.35	0.383	0.361	0.352	0.251	0.274	0.271	0.255	0.247
NCI-H1944	1.21	0.937	0.951	0.947	0.908	1.06	1.04	1.06	1.08	1.11	0.2	0.217	0.183	0.177	0.187	0.449	0.428	0.382	0.461	0.489
NCI-H1975	1.07	1.06	0.989	1.08	1.06	0.969	1.07	0.842	0.859	0.822	0.378	0.407	0.357	0.393	0.36	0.45	0.409	0.368	0.397	0.381
NCI-H1993	0.935	1.02	0.885	0.933	1.09	0.761	0.845	0.628	0.89	0.876	0.504	0.498	0.586	0.507	0.493	0.643	0.55	–	0.617	0.687
NCI-H2009	1.14	1.12	1.17	1.16	1.17	1.11	1.03	1.09	1.01	1	0.508	0.484	0.49	0.416	0.372	0.364	0.427	0.432	0.343	0.379
NCI-H2023	1.02	0.97	0.952	0.872	0.984	0.797	0.698	0.67	0.563	0.498	0.377	0.392	0.405	0.338	0.342	0.258	0.216	0.221	0.195	0.232
NCI-H2085	1.24	1.16	1.06	1.16	1.18	0.849	0.903	0.702	0.947	1.03	0.747	0.711	0.635	0.784	0.638	0.521	0.571	0.622	0.547	0.646
NCI-H2087	1.02	0.942	1.17	1.03	0.9	0.817	0.838	0.828	0.72	0.872	0.478	0.522	0.403	0.48	0.31	0.385	0.368	0.267	0.266	0.236
NCI-H2126	0.899	0.898	0.821	0.913	0.892	1.04	1.01	1.07	1.01	1.01	0.522	0.553	0.542	0.511	0.557	0.568	0.602	0.598	0.606	0.633
NCI-H2170	0.64	0.583	0.307	0.565	0.36	1.2	1.15	0.934	1.11	0.922	0.404	0.4	0.408	0.381	0.384	0.516	0.487	0.452	0.462	0.418
NCI-H2347	0.898	0.878	0.67	0.775	0.871	0.734	0.727	0.73	0.703	0.58	0.436	0.46	0.368	0.454	0.467	0.631	0.634	0.583	0.635	0.679
NCI-H2405	1.17	0.759	1.1	0.786	0.742	0.808	0.822	0.827	0.775	0.758	0.358	0.387	0.378	0.347	0.249	0.78	0.77	0.758	0.67	0.696
NCI-H3122	1.01	1.01	1.06	1.03	1.04	0.281	0.286	0.246	0.318	0.29	0.386	0.38	0.391	0.302	0.354	0.508	0.387	0.454	0.504	0.46
